Where two headings read alike, the source gives them in different places.

The text below walks through data of patent US20090149554A1, “WATER-SOLUBLE METAL ALCOHOLATE DERIVATIVES, PRODUCTION METHODS THEREOF, AND SOLID GELATINOUS EXTERNAL PREPARATIONS CONTAINING THE SAME” (SHISEIDO CO., LTD., priority 2005, published 2009).

A short description of series [1]: Gelation ability in KGM medium (visual). Type of series: physicochemical. The note with it: room temperature. As to the method:
(§1) In order to investigate the gelation ability of the above-described polyhydric alcohol substituted silane derivatives in water, the present inventors visually evaluated the progress of gelation for the 1,3-butylene glycol substituted compound and glycerin substituted compound.
(§2) The gelation ability was evaluated by adding the polyhydric alcohol substituted silane derivative to water or KGM medium to obtain various concentrations, mixing and stirring at room temperature, allowing the solution to stand still, and visually observing the gelation.

The nature of series [2]: Gelation ability in aqueous solution (visual). Type of series: physicochemical. The note with it: room temperature. As to the method: as §1, §2
Series [3] in a line: Gel formation on mixing the product with the same amount of water. In kind it is physicochemical. Here is the method: . Then, the mixture was mixed with stirring at room temperature for 48 hours. After the solid catalyst was separated by filtration, ethanol and acetonitrile were distilled away under reduced pressure, and 4.0 g of transparent viscous liquid was obtained.
A short description of series [4]: Solubility of polyhydric alcohol substituted silane derivatives in various solvents. Type of series: physicochemical. The note with it: summary of Table 1. Here is the method: Subsequently, the present inventors evaluated the solubility of the thus obtained polyhydric alcohol substituted silane derivatives in various solvents.
The evaluation of solubility was conducted by adding a polyhydric alcohol substituted silane derivative into various solvents so that the concentration would be 5 weight %, mixing and stirring at room temperature, allowing them to stand still, and visually observing the solution state. The evaluation criteria were as follows.

For a further series, the target named is T1, papain (Carica papaya, UniProt P00784).
T1 sequence (P00784 134-345): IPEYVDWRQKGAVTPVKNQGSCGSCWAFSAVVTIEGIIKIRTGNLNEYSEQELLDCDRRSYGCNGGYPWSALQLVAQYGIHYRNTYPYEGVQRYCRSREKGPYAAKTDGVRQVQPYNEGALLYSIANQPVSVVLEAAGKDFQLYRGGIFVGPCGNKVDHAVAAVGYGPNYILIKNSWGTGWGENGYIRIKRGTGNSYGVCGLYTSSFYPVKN
Briefly: Stabilization of papain enzyme activity in solid gel on storage. Type of series: biochemical. As to the method:
Into 1 g of water, 0.2 g of the propylene glycol substituted silane derivative, (Si—(OCH2CH2CH2OH)4), was dissolved. Into this solution, 0.2 mL of papain solution (4 μg/mL) was added and mixed, and the samples were charged on a 96-hole plate and allowed to stand for a fixed length of time. Similarly, several test samples were prepared, and they were maintained at various temperatures (0° C., 37° C., room temperature, and 50° C.). After 2 hours and after 3 days, the papain enzyme activity of each sample was measured. The enzyme activity was measured with a plate reader after the enzyme substrate, N-carbobenzoxy-phenylarginine-4-methylcoumarinamide (Z-PheArg-MCA), was directly added into the 96-hole plate and allowed to stand for 20 minutes at room temperature. In Comparative Example 5, the papain enzyme activity was measured in the same way as Example 21 except that the propylene glycol substituted silane derivative was not used.
The values of enzyme activity were standardized by setting the enzyme activity of the comparative example sample that had been stored at 0° C. for 2 hours to 100.0.

In the case of `OCC(O)CO[Si](OCC(O)CO)(OCC(O)CO)OCC(O)CO` (stereo not drawn) [Glycerin substituted silane derivative, Si—(O—CH2—CHOH—CH2—OH)4], the “Appearance (gelation)” value was “Transparent solution, slight thickening after 2 hours, pasty” in series [1] (2.5 % (wt/vol)); “Transparent solution, gelation after 3 hours, some” in series [1] (5.6 % (wt/vol)); “Transparent solution, gelation after 1 hour, some” in series [1] (11.0 % (wt/vol)); “Transparent solution, gelation (ringing gel) after 30” in series [1] (21.0 % (wt/vol)); “Transparent solution, gelation (ringing gel) after 30” in series [1] (35.0 % (wt/vol)); “Transparent, thickening after about 1 week, agar-like soft” in series [2] (10.0 % (wt/vol)). Also, the “Appearance (gelation)” value in series [2] (20.0 % (wt/vol)) is “Translucent low-viscosity gel after 1 day, some”; in series [2] (30.0 % (wt/vol)), “Gelation after 1 day, some seeping-out ringing gel”. Further, the “Result of mixing the product with the same amount of water” value (“Result of mixing the product” below) in series [3] (room temperature) was “homogeneous transparent gel”.

For the molecule `OCCCO[Si](OCCCO)(OCCCO)OCCCO` [Si—(OCH2CH2CH2OH)4], the “Solubility in other organic solvents” value in series [4] is listed as “excellent solubility in other organic solvents”. Also, the “Result of mixing the product” value in series [3] (room temperature) is “homogeneous transparent gel”.

Take `CC(O)CCO[Si](OCCC(C)O)(OCCC(C)O)OCCC(C)O` (stereo not drawn) [Si—(OCH2CH2CH2OHCH3)4]: the “Appearance (gelation)” value in series [1] (2.9 % (wt/vol)) is listed as “Transparent solution, slight thickening after 2 hours, pasty”; in series [1] (5.3 % (wt/vol)) it was “Transparent solution, gelation after 1 hour, some”; in series [1] (10.4 % (wt/vol)), “Transparent solution, gelation after 12 minutes, some”; in series [1] (19.6 % (wt/vol)), “Transparent solution, gelation (ringing gel) after 2”; in series [1] (35.4 % (wt/vol)), “Transparent solution, gelation (ringing gel) after 1 minute”; in series [2] (10.0 % (wt/vol)) it was “Colloidal turbidity, slight thickening after about 1 week”. The “Appearance (gelation)” value in series [2] (20.0 % (wt/vol)) is “Colloidal turbidity, thickening after 2 days, translucent”; in series [2] (30.0 % (wt/vol)) it was “Colloidal turbidity, gelation after 2 days, seeping-out”. Besides, in series [4], the “Solubility in other organic solvents” value is “excellent solubility in other organic solvents”. In addition, in series [3], the “Result of mixing the product” value is listed as “homogeneous transparent gel”.

In the case of `OCCO[Si](OCCO)(OCCO)OCCO` [tetra(2-hydroxyethoxy)silane], the “Result of mixing the product” value in series [3] (room temperature) is on record as “homogeneous transparent gel”.

B1: Comparative Example 5: papain sample prepared as Example 21 except that the propylene glycol substituted silane derivative was not used (protein, UniProt P00784 134-345, looked up)
Papain: T1 sequence (P00784 134-345)
Take B1: the “Papain enzyme activity (standardized, Comparative Example 5 at 0° C. for 2 hours = 100.0)” value with papain (After 2 hours, 0° C.) is 100.0; with papain (After 2 hours, 37° C.), 98.3; with papain (After 2 hours, 50° C.), 67.1; in the series with papain (After 2 hours, Room temperature) it was 96.5; with papain (After 3 days, 0° C.), 98.9; in the series with papain (After 3 days, 37° C.), 18.6. Besides, the “Papain enzyme activity (standardized, Comparative Example 5 at 0° C. for 2 hours = 100.0)” value stood at 2.2 with papain (After 3 days, 50° C.) and 34.5 with papain (After 3 days, Room temperature).
